Source: patent publication US11827612B2, “Hydroxamic acid derivative, method for producing same and use thereof” (INSTITUTE OF MEDICINAL BIOTECHNOLOGY, CHINESE ACADEMY OF …, priority 2019, dated 2023)
Values after ≈ are worked out from the molar mass of the structure shown.

How the values were obtained:
[1] = tested on: NDM-1-producing Klebsiella pneumoniae 2146; assay: Antibiotic susceptibility test, broth microdilution (CLSI), MIC; type: cell-based; conditions: 35° C., 18 h, read-out: Minimal inhibitory concentration (MIC)
Experimental: (§1) An antibiotic susceptibility test was carried out using the broth microdilution guidelines as stipulated by the Clinical and Laboratory Standards Institute (CLSI). Test organisms were grown in Mueller-Hinton (MH) or Brain Heart Infusion (BHI) broth. Solutions of compounds to be tested were each diluted in 96-well plates (50 μl per well) to various prescribed concentrations with the MH or BHI broth. Final concentrations of the solutions in each well were as follows: 128, 64, 32, 16, 8, 4, 2, 1, 0.5, 0.25, 0.125, 0.06, and 0.03 μg/ml. The culture mediums in the 96-well plates were inoculated with 5×10^5 CFU/ml of the test organisms, and then the organisms were cultured at 35° C. for 18 h.

[2] = tested on: Enterobacter aerogenes ATCC 13048; assay: as above; type: cell-based; conditions: Klebsiella aerogenes, ATCC13048, 35° C., 18 h, read-out: Minimal inhibitory concentration (MIC)
Experimental: as §1

[3] = tested on: Klebsiella pneumoniae ATCC 700603; assay: as above; type: cell-based; conditions: ATCC700603, 35° C., 18 h, read-out: Minimal inhibitory concentration (MIC)
Experimental: as §1

[4] = tested on: Enterobacter cloacae ATCC 43560; assay: as above; type: cell-based; conditions: ATCC43560, 35° C., 18 h, read-out: Minimal inhibitory concentration (MIC)
Experimental: as §1

[5] = tested on: Pseudomonas aeruginosa ATCC 27853; assay: as above; type: cell-based; conditions: ATCC27853, 35° C., 18 h, read-out: Minimal inhibitory concentration (MIC)
Experimental: as §1

E. coli ATCC 25922 = assay: as above; type: cell-based; conditions: Escherichia coli, ATCC25922, 35° C., 18 h, read-out: Minimal inhibitory concentration (MIC)
Experimental: as §1

ICR mice = assay: Experiments of toxicity in mice, tail vein injection; type: in vivo; conditions: for Toxicity/yes or no: ICR mice, tail vein injection; for Mortality rate / Number of deaths / Time of death: both, ICR, mouse, in vivo
Experimental: (§2) ICR mice of either sex weighing between 18-22 g were randomized into groups of 3 mice per group. […] The number of mice that died and the time of death were recorded. […] Tails were removed from the mice that were not dead from the injection and from the normal mice that were not given any of the compounds, and were then fixed in paraformaldehyde. Tail vessels were observed by HE staining to determine whether or not a lesion existed.

[6] = as above; type: in vivo; conditions: both sexes, ICR, mouse, in vivo
Experimental: as §2

Structure (SMILES)	MIC [1]	MIC [2]	MIC [3]	MIC [4]	MIC [5]	MIC (E. coli ATCC 25922)	Toxicity/yes or no (ICR mice; dose 100 mg/kg)	Toxicity/yes or no (ICR mice; dose 200 mg/kg)	Toxicity/yes or no (ICR mice; dose 300 mg/kg)	Mortality rate (ICR mice; 100 mg/kg)	Number of deaths (ICR mice; 100 mg/kg)	Mortality rate (ICR mice; 200 mg/kg)	Number of deaths (ICR mice; 200 mg/kg)	Time of death (ICR mice; 200 mg/kg)	Mortality rate (ICR mice; 300 mg/kg)	Number of deaths (ICR mice; 300 mg/kg)	Time of death (ICR mice; 300 mg/kg)	MTD [6]
CO[C@H]1CCC[C@@H]1C#CC#Cc1ccc(C(=O)N[C@H](C(=O)NO)C(C)(C)N)cc1 [I-1, N—((S)-3-amino-1-(hydroxyamino)-3-methyl-1-oxobutan-2-yl)-4-(((1R,2S)-2-methoxycyclopentyl)butan-1,3-diyne-1-yl)benzamide]	2 µg/mL (≈ 5.03 µM)	1 µg/mL (≈ 2.52 µM)	2 µg/mL (≈ 5.03 µM)	1 µg/mL (≈ 2.52 µM)	0.5 µg/mL (≈ 1.26 µM)	0.125 µg/mL (≈ 0.314 µM)	no	yes	yes	0%	0	66%	2	10 to 20 min	100%	1	1 min	> 100 mg/kg
CC(C)(N)[C@H](NC(=O)N1CCN(C#CC#Cc2ccc([N+](=O)[O-])cc2)CC1)C(=O)NO [I-2, (S)—N-(3-amino-1-(hydroxyamino)-3-methyl-1-oxobutan-2-yl)-4-((4-nitrophenyl)butan-1,3-diyne-1-yl)-piperazin-1-carboxamide]	2 µg/mL (≈ 4.67 µM)	2 µg/mL (≈ 4.67 µM)	2 µg/mL (≈ 4.67 µM)	0.5 µg/mL (≈ 1.17 µM)	0.25 µg/mL (≈ 0.584 µM)	0.125 µg/mL (≈ 0.292 µM)	no	yes	yes	0%	0	66%	2	10 to 15 min	100%	1	0.5 to 1 min	> 100 mg/kg
CC(C)(N)[C@H](NC(=O)c1ccc(C#CC#Cc2ccc(CN3CCCCC3)cc2)cc1O)C(=O)NO [I-3, (S)—N-(3-amino-1-(hydroxyamino)-3-methyl-1-oxobutan-2-yl)-2-hydroxy-4-((4-(piperidin-1-ylmethyl)phenyl)butan-1,3-diyne-1-yl)benzamide]	2 µg/mL (≈ 4.09 µM)	2 µg/mL (≈ 4.09 µM)	4 µg/mL (≈ 8.19 µM)	1 µg/mL (≈ 2.05 µM)	0.5 µg/mL (≈ 1.02 µM)	0.125 µg/mL (≈ 0.256 µM)	no	yes	yes	0%	0	66%	2	10 to 20 min	100%	1	1 min	> 100 mg/kg
C[C@H]1COc2c(N3CCN(C)CC3)c(F)cc3c(=O)c(C(=O)O)cn1c23 [Levofloxacin, levofloxacin, reference compound]	> 64 µg/mL	≤ 0.25 µg/mL	0.5 µg/mL (≈ 1.38 µM)	≤ 0.25 µg/mL	1 µg/mL (≈ 2.77 µM)	≤ 0.25 µg/mL	–	–	–	–	–	–	–	–	–	–	–	–
